Values quoted from earlier work as cited in PMC9804730 (Diabetes, Obesity & Metabolism, 2022).

Columns and labels:
[1] = N- and C-terminal degradation

(D‐Arg^35)‐sea lamprey PYY (1–36) [SL‐PYY]
enzymatic stability [1]: N‐ and C‐terminally enzyme‐resistant
effect on insulin secretion: insulinostatic
effect on blood glucose levels in the acute setting (acute setting): does not affect
